# Assay results reported in patent US4258046A, “Pyrano-heterocycles and medicaments containing these compounds” (Hoechst Aktiengesellschaft, priority 1978, dated 1981).
# Where a name gives a salt, the structure may show the parent alone.
# How the values were obtained:
# [1] = test system: passive cutaneous anaphylaxis (PCA) in rats; experiment: Inhibition of passive cutaneous anaphylaxis (PCA) in rats on intravenous treatment; format: in vivo, Sprague-Dawley rats; details: i.v., antiserum dilution 1:16
# Experimental: (§1) The antiserum is directed against ovalbumine and is induced in rats by combined administration of ovalbumine with Bordetella pertussis as adjuvant and boostering with Nippostrongylus larvae. 72 hours after the intracutaneous administration of the antiserum, the intravenous injection of the antigen consisting of a mixture of each time 25 mg/kg of ovalbumine and Evans blue is effected, in order to trigger the cutaneous anaphylactic reaction. The compounds of the formula I or their salts are administered, if intravenously, directly before the injection of the ovalbumine-dyestuff mixture and if administered orally, 30 minutes before the administration of the ovalbumine-dyestuff mixture. 10 Minutes after the ovalbumine-dyestuff injection, the animals are sacrificed and the diameter of spreading of the dyestuff is measured in the hypodermis.
# (§2) As comparative substance, the standard preparation di- sodium-chromoglycate(DSCG) is used.
# [2] = test system: passive cutaneous anaphylaxis (PCA) in rats; experiment: Inhibition of passive cutaneous anaphylaxis (PCA) in rats on oral treatment; format: in vivo, Sprague-Dawley rats
# Experimental: The compounds of the invention of the formula I and their salts have strong antiallergic properties and are well tolerated on intravenous as well as oral administration in the models of passive cutaneous anaphylaxis (P C A) to rats.
# as §1, with “According to the method described by J. Goose and A. M. J. N. Blair, Immunology 16, 749 (1969) a P C A is made ready on Sprague-Dawley rats by intracutaneous administration of homologous antiserum, 0.1 ml of a dilution of 1:16 and 1:32 in both flanks. The antiserum” for “The antiserum”
# as §2
# [3] = 10.0 mg/kg, antiserum dilution 1:16
# [4] = 10.0 mg/kg, antiserum dilution 1:32
SMILES,% Inhibition against control ([1]; 0.1 mg/kg),% Inhibition against control ([1]; 0.3 mg/kg),% Inhibition against control ([1]; 1.0 mg/kg),% Inhibition against control ([1]; 3.0 mg/kg),% Inhibition against control ([1]; 0.03 mg/kg),further results
"O=C(O)c1cc(=O)c2c(OCC(O)COc3cccc4oc(C(=O)O)cc(=O)c34)cccc2o1 [DSCG, di- sodium-chromoglycate, reference compound]",9%,34%,71%,–,–,"activity when administered orally [2]: orally inactive; % Inhibition against control [2, 3]: 0%; % Inhibition against control [2, 4]: 0%; % Inhibition against control ([2]; 30.0 mg/kg, antiserum dilution 1:16): 5%; % Inhibition against control ([2]; 30.0 mg/kg, antiserum dilution 1:32): 0%"
"O=c1oc2c(c(O)c1[N+](=O)[O-])c(=O)n1c3c(cc(Cl)cc23)CCC1 [Example 24, 11-Chloro-7,8-dihydro-3-nitro-2,5-dioxo-2H,5H,9H-benzo-[ij]pyrano[2,3-b]quinolizine-4-ol-sodium salt]",12%,50%,89%,100%,–,"% Inhibition against control ([2]; 0.3 mg/kg, antiserum dilution 1:16): 22%; % Inhibition against control ([2]; 0.3 mg/kg, antiserum dilution 1:32): 27%; % Inhibition against control ([2]; 1.0 mg/kg, antiserum dilution 1:16): 50%; % Inhibition against control ([2]; 1.0 mg/kg, antiserum dilution 1:32): 73%; % Inhibition against control ([2]; 3.0 mg/kg, antiserum dilution 1:16): 44%; % Inhibition against control ([2]; 3.0 mg/kg, antiserum dilution 1:32): 73%; % Inhibition against control [2, 3]: 44%; % Inhibition against control [2, 4]: 73%"
"Cn1c(=O)c2c(O)c([N+](=O)[O-])c(=O)oc2c2cc(Cl)ccc21 [Example 25, 9-Chloro-5,6-dihydro-6-methyl-3-nitro-2,5-dioxo-2H-pyrano[3,2-c]quinoline-4-ol]",100%,–,–,–,67%,% Inhibition against control ([1]; 0.01 mg/kg): 44%
"CCn1c(=O)c2c(O)c([N+](=O)[O-])c(=O)oc2c2cc(Cl)ccc21 [Example 30, 6-Ethyl-9-chloro-5,6-dihydro-3-nitro-2,5-dioxo-2H-pyrano[3,2-c]-quinoline-4-ol]",88%,100%,–,–,50%,–
"CCn1c(=O)c2c(O)c([N+](=O)[O-])c(=O)oc2c2cc(F)ccc21.[Na] [Example 31, 6-Ethyl-9-fluoro-5,6-dihydro-3-nitro-2,5-dioxo-2H-pyrano[3,2-c]quinoline-4-ol-sodium salt]",80%,87%,–,100%,60%,% Inhibition against control ([1]; 0.01 mg/kg): 27%
"CCn1c(=O)c2c(O)c([N+](=O)[O-])c(=O)oc2c2cc(C(F)(F)F)ccc21 [Example 32, 6-Ethyl-5,6-dihydro-3-nitro-2,5-dioxo-9-trifluoromethyl-2H-pyrano[3,2-c]quinoline-4-ol]",69%,75%,–,100%,19%,–
"CCn1c(=O)c2c(O)c([N+](=O)[O-])c(=O)oc2c2cc(Cl)c(Cl)cc21 [Example 35, 6-Ethyl-8,9-dichloro-5,6-dihydro-3-nitro-2,5-dioxo-2H-pyrano[3,2-c]quinoline-4-ol]",20%,53%,73%,–,–,% Inhibition against control ([1]; 30.0 mg/kg): 100%
